This note sets out measurements from PubChem BioAssay (NCI).

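How tested: cells in 96-well plates exposed to compound for 48 hours at five concentrations. GI50: concentration for 50% inhibition of growth. TGI marks complete inhibition of growth.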 Where only a bound is given, the exact number is not on record here.

Among the test systems are A549 NSCLC; M14 melanoma; HCT-15 colon; OVCAR-5 ovarian; SF-295 CNS; MDA-MB-435; MALME-3M melanoma; SK-MEL-5 melanoma; UACC-257 melanoma; SK-OV-3 ovarian.
What all share (experiment): NCI anticancer screen, dose series, 48 h

Take `CN(C)c1cccc(NC2=NCCO2)c1`: the TGI in the experiment on A549 NSCLC is greater than 100 µM; in the experiment on M14 melanoma it was greater than 100 µM; in the experiment with HCT-15 colon it was greater than 100 µM; with OVCAR-5 ovarian, greater than 100 µM; in the experiment with SF-295 CNS, greater than 100 µM; in the experiment with MDA-MB-435, 42.9 µM. In addition, the TGI with MALME-3M melanoma, in the experiment on SK-MEL-5 melanoma and in the experiment with UACC-257 melanoma was greater than 100 µM throughout.
As to `CC1=NC(=Cc2ccc([N+](=O)[O-])cc2)C(=O)N1n1c(-c2ccccc2)nc2ccccc2c1=O`, the TGI with A549 NSCLC, in the experiment with SK-OV-3 ovarian, with M14 melanoma, in the experiment on HCT-15 colon, in the experiment on SF-295 CNS and in the experiment on MDA-MB-435 was greater than 100 µM in each case. The TGI in the experiment on MALME-3M melanoma, in the experiment on SK-MEL-5 melanoma and in the experiment on UACC-257 melanoma was greater than 100 µM throughout.
With `CN1C(=O)C2(c3ccccc31)N(c1ccc(Cl)cc1)C(=O)C2(c1ccccc1)c1ccccc1` (stereo not drawn), the GI50 is 18.5 µM in the experiment on A549 NSCLC; greater than 100 µM in the experiment with SK-OV-3 ovarian; 45.3 µM in the experiment on M14 melanoma; greater than 100 µM in the experiment with HCT-15 colon; greater than 100 µM in the experiment on OVCAR-5 ovarian; 11 µM in the experiment with SF-295 CNS. For the same compound, the GI50 in the experiment on MDA-MB-435 was greater than 100 µM; in the experiment on MALME-3M melanoma, 50.8 µM; in the experiment with SK-MEL-5 melanoma, 54.5 µM; in the experiment on UACC-257 melanoma, 47.6 µM. Further, the TGI in the experiment with A549 NSCLC, in the experiment with SK-OV-3 ovarian, with M14 melanoma, with HCT-15 colon, in the experiment with OVCAR-5 ovarian and in the experiment on SF-295 CNS was greater than 100 µM in each case. Further, the TGI in the experiment on MDA-MB-435, in the experiment on MALME-3M melanoma, with SK-MEL-5 melanoma and in the experiment with UACC-257 melanoma was greater than 100 µM in each case.
Turning to `CC(=O)c1c(C)[nH]c(-c2nc3ccc(N4CCN(C)CC4)cc3[nH]2)c1-c1ccccc1`, the GI50 in the experiment with A549 NSCLC is 1.45 µM; in the experiment on SK-OV-3 ovarian it was 0.97 µM; in the experiment on M14 melanoma it was 1.1 µM; with HCT-15 colon, 0.719 µM; in the experiment with OVCAR-5 ovarian it was 1.12 µM; with SF-295 CNS, 2.07 µM. Also, the GI50 in the experiment with MDA-MB-435 was 0.505 µM; in the experiment with MALME-3M melanoma, 0.961 µM; in the experiment with SK-MEL-5 melanoma, 1.35 µM; with UACC-257 melanoma it was 1.46 µM. In addition, the TGI in the experiment with A549 NSCLC is 22.5 µM; in the experiment on SK-OV-3 ovarian, greater than 100 µM; in the experiment with M14 melanoma, 19.4 µM; with HCT-15 colon, 18.9 µM; in the experiment on OVCAR-5 ovarian it was 22.9 µM; with SF-295 CNS it was 19.2 µM. For the same compound, the TGI amounted to 12.9 µM with MDA-MB-435, 12.7 µM in the experiment with MALME-3M melanoma, 10.4 µM with SK-MEL-5 melanoma and 17.9 µM with UACC-257 melanoma.
Consider `CC1=C(C(=O)Nc2ccc(Cl)c(C(=O)OC(C)C)c2)SCCO1`, for which the TGI with A549 NSCLC was 65.8 µM; with SK-OV-3 ovarian it was greater than 81.1 µM; in the experiment with M14 melanoma, greater than 100 µM; in the experiment with HCT-15 colon, greater than 100 µM; in the experiment on OVCAR-5 ovarian, 75.3 µM; in the experiment with SF-295 CNS, greater than 80.7 µM. In addition, the TGI in the experiment with MDA-MB-435 is greater than 100 µM; in the experiment with MALME-3M melanoma, 92.2 µM; in the experiment with SK-MEL-5 melanoma, 81.4 µM; with UACC-257 melanoma it was greater than 89.8 µM.
For the compound `CCOC(=O)c1cnc2c(C)cccc2c1Nc1ccc(C(C)=O)cc1`, the GI50 in the experiment on A549 NSCLC is 38.8 µM; with SK-OV-3 ovarian, 75.8 µM; in the experiment on M14 melanoma, 77.8 µM; in the experiment on HCT-15 colon, 20.7 µM; in the experiment with OVCAR-5 ovarian, 34.6 µM; with SF-295 CNS, 36.2 µM. The GI50 in the experiment with MDA-MB-435 was greater than 100 µM; with MALME-3M melanoma, 28.7 µM; in the experiment on SK-MEL-5 melanoma, 3.75 µM; with UACC-257 melanoma it was 79.9 µM. Also, the TGI with A549 NSCLC, in the experiment with SK-OV-3 ovarian, in the experiment on M14 melanoma, in the experiment with HCT-15 colon, in the experiment with OVCAR-5 ovarian and in the experiment with SF-295 CNS was greater than 100 µM in each case. Further, the TGI was greater than 100 µM in the experiment with MDA-MB-435, greater than 100 µM in the experiment with MALME-3M melanoma, 19.7 µM with SK-MEL-5 melanoma and greater than 100 µM with UACC-257 melanoma.
On to `NS(=O)(=O)OCCCCCCCOS(N)(=O)=O`, for which the TGI in the experiment on A549 NSCLC was found to be 729 µM; in the experiment with SK-OV-3 ovarian, 1570 µM; in the experiment on M14 melanoma, 579 µM; in the experiment with HCT-15 colon it was 1190 µM; with OVCAR-5 ovarian, 1400 µM; with SF-295 CNS it was 1020 µM. Moreover, the TGI with MDA-MB-435 was 921 µM; in the experiment on MALME-3M melanoma, 1050 µM; in the experiment with SK-MEL-5 melanoma, 649 µM; in the experiment with UACC-257 melanoma, 1310 µM.
Regarding `O=C(COc1cccc(/C=C2\CSc3ccccc3C2=O)c1)Nc1nccs1`, the GI50 with A549 NSCLC is 5.73 µM; in the experiment with SK-OV-3 ovarian, 14.6 µM; with M14 melanoma it was 1.88 µM; in the experiment on HCT-15 colon it was 2.17 µM; with OVCAR-5 ovarian, 3.08 µM; in the experiment on SF-295 CNS, 2.09 µM. Also, the GI50 in the experiment with MDA-MB-435 was 2.02 µM; in the experiment with MALME-3M melanoma, 1.54 µM; in the experiment on SK-MEL-5 melanoma, 2.38 µM; in the experiment with UACC-257 melanoma it was 3.02 µM. Besides, the TGI in the experiment with A549 NSCLC is 18.3 µM; in the experiment with SK-OV-3 ovarian, 27.7 µM; in the experiment with M14 melanoma, 4.06 µM; in the experiment with HCT-15 colon, 5 µM; in the experiment on OVCAR-5 ovarian, 15.5 µM; in the experiment on SF-295 CNS, 3.59 µM. Besides, the TGI in the experiment on MDA-MB-435 was found to be 4.85 µM; in the experiment with MALME-3M melanoma, 3.11 µM; in the experiment with SK-MEL-5 melanoma, 15.5 µM; in the experiment on UACC-257 melanoma it was 9.77 µM.
Consider `CC[C@H](C)[C@H](NC(=O)CN(C)C)C(=O)N(C)[C@H](C[C@@H](OC(C)=O)c1nc(C(=O)NC23CC(C(=O)OC)(C2)C3)cs1)C(C)C`, for which the GI50 in the experiment with A549 NSCLC was 1.62 µM; with SK-OV-3 ovarian, 1.64 µM; in the experiment on M14 melanoma, 0.0995 µM; with HCT-15 colon it was 1.01 µM; with OVCAR-5 ovarian it was greater than 6.63 µM; with SF-295 CNS it was 0.647 µM. In addition, the GI50 is 0.0461 µM with MDA-MB-435, greater than 6.28 µM in the experiment on MALME-3M melanoma, 0.572 µM with SK-MEL-5 melanoma and greater than 25 µM with UACC-257 melanoma. Also, the TGI in the experiment on A549 NSCLC was greater than 25 µM; in the experiment with SK-OV-3 ovarian, greater than 25 µM; with M14 melanoma it was greater than 5.78 µM; with HCT-15 colon, greater than 25 µM; with OVCAR-5 ovarian, greater than 25 µM; in the experiment on SF-295 CNS it was greater than 25 µM. Further, the TGI was 0.298 µM in the experiment with MDA-MB-435, greater than 25 µM in the experiment with MALME-3M melanoma, 4 µM in the experiment on SK-MEL-5 melanoma and greater than 25 µM in the experiment on UACC-257 melanoma.
